Reference: ChEMBL document CHEMBL4477208, “Discovery and Rational Design of Pteridin-7(8H)-one-Based Inhibitors Targeting FMS-like Tyrosine Kinase 3 (FLT3) and Its Mutants” (J Med Chem, 2016)
Calls of active or inactive are those of the source. The calls are words filed in the database; no cut-off is given here.

Legend:
[1] = tested on: MV4-11; test: Cell cycle arrest in human MV4-11 cells assessed as accumulation at G0/G1 phase at 10 nM after 48 hrs by PI/RNase staining based FACS analysis (reference value: 69.55%); format: functional
[2] = tested on: MV4-11; test: Cell cycle arrest in human MV4-11 cells assessed as accumulation at G2 phase at 10 nM after 48 hrs by PI/RNase staining based FACS analysis (reference value: 13.95%); format: functional
[3] = tested on: MV4-11; test: Cell cycle arrest in human MV4-11 cells assessed as accumulation at S phase at 10 nM after 48 hrs by PI/RNase staining based FACS analysis (reference value: 16.50%); format: functional
[4] = tested on: MV4-11; test: Induction of apoptosis in human MV4-11 cells assessed as late apoptotic cells at 1 nM after 48 hrs by annexin V/propidium iodide staining based FACS analysis (reference value: 3.01%); format: functional
[5] = tested on: MV4-11; test: Induction of apoptosis in human MV4-11 cells assessed as viable cells at 10 nM after 48 hrs by annexin V/propidium iodide staining based FACS analysis (reference value: 90.60%); format: functional; settings: MV4-11, 48 h, read-out: Activity
[6] = tested on: MV4-11; test: Induction of apoptosis in human MV4-11 cells assessed as early apoptotic cells at 10 nM after 48 hrs by annexin V/propidium iodide staining based FACS analysis (reference value: 6.31%); format: functional
[7] = tested on: MV4-11; test: Induction of apoptosis in human MV4-11 cells assessed as necrotic cells at 10 nM after 48 hrs by annexin V/propidium iodide staining based FACS analysis (reference value: 0.05%); format: functional
[8] = tested on: MV4-11; test: Induction of apoptosis in human MV4-11 cells assessed as viable cells at 10000 nM after 48 hrs by annexin V/propidium iodide staining based FACS analysis (reference value: 90.60%); format: functional; settings: MV4-11, 48 h, read-out: Activity
[9] = tested on: MV4-11; test: Induction of apoptosis in human MV4-11 cells assessed as early apoptotic cells at 10000 nM after 48 hrs by annexin V/propidium iodide staining based FACS analysis (reference value: 6.31%); format: functional
[10] = tested on: MV4-11; test: Induction of apoptosis in human MV4-11 cells assessed as late apoptotic cells at 10000 nM after 48 hrs by annexin V/propidium iodide staining based FACS analysis (reference value: 3.01%); format: functional
[11] = tested on: MV4-11; test: Induction of apoptosis in human MV4-11 cells assessed as dead cells after 48 hrs by annexin V/propidium iodide staining based FACS analysis; format: functional, cell-based
[12] = Half life in overnight fasted Sprague-Dawley rat plasma at 1 mg/kg, iv up to 24 hrs by LC-MS/MS analysis; format: ADME, organism-based
[13] = Cmax in overnight fasted Sprague-Dawley rat plasma at 10 mg/kg administered via oral gavage up to 24 hrs by LC-MS/MS analysis; format: ADME, organism-based; design: dose 10 mg/kg, route oral
[14] = Half life in overnight fasted Sprague-Dawley rat plasma at 10 mg/kg administered via oral gavage up to 24 hrs by LC-MS/MS analysis; format: ADME, organism-based
[15] = AUC (0 to infinity) in overnight fasted Sprague-Dawley rat plasma at 10 mg/kg administered via oral gavage up to 24 hrs by LC-MS/MS analysis; format: ADME, organism-based; design: dose 10 mg/kg, route oral, time infinity
[16] = tested on: MV4-11; test: Antiproliferative activity against human MV4-11 cells after 72 hrs by MTT assay; format: functional, cell-based; settings: MV4-11, 72 h
[17] = tested on: THP-1; test: Antiproliferative activity against human THP1 cells after 72 hrs by MTT assay; format: functional, cell-based; settings: THP-1, 72 h
[18] = tested on: RS4-11; test: Antiproliferative activity against human RS4:11 cells after 72 hrs by MTT assay; format: functional, cell-based; settings: RS4-11, 72 h
[19] = tested on: HL-60; test: Antiproliferative activity against human HL60 cells after 72 hrs by MTT assay; format: functional, cell-based; settings: HL-60, 72 h
[20] = tested on: NCI-H146; test: Antiproliferative activity against human NCI-H146 cells after 72 hrs by MTT assay; format: functional, cell-based; settings: NCI-H146, 72 h
[21] = tested on: NCI-H187; test: Antiproliferative activity against human NCI-H187 cells after 72 hrs by MTT assay; format: functional, cell-based; settings: NCI-H187, 72 h
[22] = tested on: NCI-H209; test: Antiproliferative activity against human H209 cells after 72 hrs by MTT assay; format: functional, cell-based; settings: NCI-H209, 72 h
[23] = tested on: NCI-H1299; test: Antiproliferative activity against human H1299 cells after 72 hrs by SRB assay; format: functional, cell-based; settings: NCI-H1299, 72 h
[24] = tested on: HCT-116; test: Antiproliferative activity against human HCT116 cells after 72 hrs by SRB assay; format: functional, cell-based; settings: HCT-116, 72 h
[25] = tested on: SW-620; test: Antiproliferative activity against human SW620 cells after 72 hrs by SRB assay; format: functional, cell-based; settings: SW-620, 72 h
[26] = tested on: MCF7; test: Antiproliferative activity against human MCF7 cells after 72 hrs by SRB assay; format: functional, cell-based; settings: MCF7, 72 h
[27] = tested on: MV4-11; test: Antitumor activity against human MV4-11 cells xenografted in nude BALB/c mouse assessed as tumor growth inhibition at 25 mg/kg, po qd for 14 days measured every 2 days; format: functional; settings: MV4-11, po, read-out: TGI
[28] = tested on: MV4-11; test: Antitumor activity against human MV4-11 cells xenografted in nude BALB/c mouse assessed as tumor growth inhibition at 50 mg/kg, po qd for 14 days measured every 2 days; format: functional; settings: MV4-11, po, read-out: TGI
[29] = tested on: MV4-11; test: Antitumor activity against human MV4-11 cells xenografted in nude BALB/c mouse assessed as tumor growth inhibition at 50 mg/kg, ip qd for 14 days measured every 2 days; format: functional; settings: MV4-11, ip, read-out: TGI
[30] = biological target: Receptor-type tyrosine-protein kinase FLT3 (Homo sapiens, UniProt P36888, D835H); test: Binding affinity to human partial length FLT3 D835H mutant (592 to 969 residues) expressed in bacterial expression system after 1 hr
[31] = biological target: Receptor-type tyrosine-protein kinase FLT3 (Homo sapiens, UniProt P36888, D835Y); test: Binding affinity to human partial length FLT3 D835Y mutant (580 to 969 residues) expressed in bacterial expression system after 1 hr
[32] = biological target: Receptor-type tyrosine-protein kinase FLT3 (Homo sapiens, UniProt P36888, D835V); test: Binding affinity to human partial length FLT3 D835V mutant (592 to 969 residues) expressed in mammalian expression system after 1 hr
[33] = tested on: MV4-11; test: Antitumor activity against human MV4-11 cells xenografted in nude BALB/c mouse assessed as induction of late stage apoptosis at 50 mg/kg, po qd measured after 1 to 3 days by TUNEL assay; format: functional, organism-based
[34] = tested on: Receptor-type tyrosine-protein kinase FLT3 (Homo sapiens), P36888 [D835V]; test: Inhibition of human FLT3 D835V mutant expressed in mammalian system assessed as remaining enzyme activity at 1 uM relative to untreated control
[35] = tested on: Receptor-type tyrosine-protein kinase FLT3 (Homo sapiens), P36888 [UNDEFINED MUTATION]; test: Inhibition of human FLT3 ITD/F691L mutant expressed in mammalian system assessed as remaining enzyme activity at 1 uM relative to untreated control
[36] = tested on: MV4-11; test: cells; settings: Homo sapiens, MV4-11, 72 h
Description: Antiproliferative activity against human MV4-11 cells harboring FLT3-ITD mutant after 72 hrs by MTT assay

[37] = tested on: K562; test: cells; settings: Homo sapiens, K562, 72 h
Description: Antiproliferative activity against FLT3-deficient human K562 cells after 72 hrs by MTT assay

Cc1cc(Nc2ncc3ncc(=O)n(-c4ccc(N)cc4)c3n2)ccc1N1CCN(C)CC1 gave an Activity [1] of 70.2%, an Activity [2] of 11.4% and an Activity [3] of 18.4%. The Activity [4] was 3.49%, the viability at 0.01 µM [5] was 86.9% and the Activity [6] was 9.71%. For the same compound, the Activity [7] was 0.01%, the viability at 10 µM [8] was 0.02% and the Activity [9] was 68.6%. For the same compound, the Activity [10] was 31.3%, the Activity [11] was “Dose-dependent effect” and the half-life [12] was 3.11 h. For the same compound, the Cmax [13] was 41 ng/mL, the half-life [14] was 4.49 h and the AUC(0-inf) [15] was 311 ng·h/mL. It also gave an IC50 [16] of 0.051 µM, an IC50 [17] of over 10 µM and an IC50 [18] of 0.925 µM. It also gave an IC50 [19] of 1.38 µM, an IC50 [20] of over 10 µM and an IC50 [21] of over 10 µM. It also gave an IC50 [22] of over 10 µM, an IC50 [23] of 4.88 µM and an IC50 [24] of 2.36 µM. For the same compound, the IC50 [25] was 2.53 µM, the IC50 [26] was over 10 µM and the inhibition in vivo at 25 mg/kg [27] was 87%. For the same compound, the inhibition in vivo at 50 mg/kg [28] was 128%, the inhibition in vivo at 50 mg/kg [29] was 136% and the Kd [30] was 0.0018 µM. The Kd [31] was 0.002 µM, the Kd [32] was 0.00025 µM and the Activity [33] was “Active”. For the same compound, the Activity [34] was under 1%, the Activity [35] was under 1% and the IC50 [36] was 0.051 µM. For the same compound, the IC50 [37] was over 10 µM.
